These results are taken from PMC9555310, “Novel inhibitors and activity-based probes targeting serine proteases” (Frontiers in Chemistry, 2022).

Test [1] has as its target T1, trypsin (Sus scrofa, UniProt P00761).
T1 construct: purchased Sigma-Aldrich; host or cells: porcine pancreas
The experiment in a line: Activity-based profiling of trypsin (SDS-PAGE, streptavidin-HRP western blot). It is filed as binding, porcine. The conditions noted are these: 50 μM ABP, 30 min, 37°C; band of apparent molecular weight 23 kDa. The protocol:
(§1) Samples of recombinant protease (trypsin, plasmin, thrombin, chymotrypsin, or HNE, as indicated in the relevant figure legends) were treated with each of the newly synthesized compounds at a concentration of 50 μM, for 30 min, at 37°C. A control sample (no ABP) was prepared by treating the recombinant protease with solvent vehicle (DMF) only, used to prepare the stock solution of each ABP. Samples were also pre-treated (±90°C for 30 min) before being incubated with each putative ABP. With trypsin and thrombin, further samples were prepared where Z-Arg^P-(OPh)2 or NAP559, respectively, was added 30 min prior to the addition of the ABP under examination. All treated samples were then denatured with SDS containing reducing treatment buffer (10 min at 95°C), followed by resolution by SDS-PAGE and subjected to Western blotting. Resolved proteins were then transferred onto the nitrocellulose membrane and labeled with streptavidin-HRP. […]
(§2) Following transfer, the extra protein binding sites on the membrane were blocked by addition of 3% (w/v) BSA in TBST (20 mM Tris, 137 mM NaCl, 1% (v/v) Tween 20, pH 7.6) and agitated gently at room temperature for 30 minutes. The biotin-labelled proteases were then detected by addition of Streptavidin-HRP (Vector Laboratories) in 3% (w/v) BSA in TBST at a concentration of 1:20000, for 1 hour at room temperature. […]
Background: In western blotting, separated proteins are transferred to a membrane and probed.

Test [2] addresses T2, chymotrypsin (Bos taurus, UniProt P00766).
T2 construct: purchased Sigma-Aldrich (supplement); Calbiochem; host or cells: bovine pancreas
The experiment in a line: Activity-based profiling of chymotrypsin (SDS-PAGE, streptavidin-HRP western blot). The test is classed as binding, bovine. The conditions noted are these: 50 μM ABP, 30 min, 37°C; blocked by heat inactivation. The protocol:
as §1, with “examination.” for “examination. All treated samples were then denatured with SDS containing reducing treatment buffer (10 min at 95°C), followed by resolution by SDS-PAGE and subjected to Western blotting. Resolved proteins were then transferred onto the nitrocellulose membrane and labeled with streptavidin-HRP.”
(§3) FIGURE 7 Activity Based Profiling of serine proteases by peptide N-Alkyl glycine carbamates. […] CF Sol (sample 26w) was used at a final concentration of 2.5% (v/v), and the level of NE contained therein was measured using Succinyl-Ala-Ala-Pro-Val-NHMec (50 μM), in the absence (-- o --) and presence (-- o --) of NAP800 (50 μM). […]
as §2

Test [3] addresses T3, elastase-like proteases (NE) in CF Sol samples (Homo sapiens, UniProt P08246).
T3 construct: from tissue; host or cells: Cystic Fibrosis (CF) Sol samples 26w and 41w from patients
T3 sequence (P08246 30-247 limits assumed): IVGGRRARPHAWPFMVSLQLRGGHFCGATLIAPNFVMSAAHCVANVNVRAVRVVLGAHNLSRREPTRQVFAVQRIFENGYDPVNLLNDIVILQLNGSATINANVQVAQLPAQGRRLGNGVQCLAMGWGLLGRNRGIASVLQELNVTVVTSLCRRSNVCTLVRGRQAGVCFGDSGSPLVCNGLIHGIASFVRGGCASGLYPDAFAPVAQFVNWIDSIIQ
Briefly: Activity-based profiling of CF Sol samples (SDS-PAGE, streptavidin-HRP western blot). To be noted: 50 μM, 30 min, 37°C; band ∼29 kDa. The test is classed as binding. The protocol: (§4) Samples of recombinant protease (trypsin, plasmin, thrombin, chymotrypsin, or HNE, as indicated in the relevant figure legends) were treated with each of the newly synthesized compounds at a concentration of 50 μM, for 30 min, at 37°C. A control sample (no ABP) was prepared by treating the recombinant protease with solvent vehicle (DMF) only, used to prepare the stock solution of each ABP. Samples were also pre-treated (±90°C for 30 min) before being incubated with each putative ABP. With trypsin and thrombin, further samples were prepared where Z-Arg^P-(OPh)2 or NAP559, respectively, was added 30 min prior to the addition of the ABP under examination. All treated samples were then denatured with SDS containing reducing treatment buffer (10 min at 95°C), followed by resolution by SDS-PAGE and subjected to Western blotting. Resolved proteins were then transferred onto the nitrocellulose membrane and labeled with streptavidin-HRP. The ABP–protease complex was then visualized following treatment with Luminata Forte HRP substrate.
as §3

Test [4] addresses T4, NE in CF Sol samples (Homo sapiens, UniProt P08246).
T4 construct: from tissue; host or cells: Cystic Fibrosis (CF) Sol samples 26w and 41w from patients
T4 sequence (P08246 30-267): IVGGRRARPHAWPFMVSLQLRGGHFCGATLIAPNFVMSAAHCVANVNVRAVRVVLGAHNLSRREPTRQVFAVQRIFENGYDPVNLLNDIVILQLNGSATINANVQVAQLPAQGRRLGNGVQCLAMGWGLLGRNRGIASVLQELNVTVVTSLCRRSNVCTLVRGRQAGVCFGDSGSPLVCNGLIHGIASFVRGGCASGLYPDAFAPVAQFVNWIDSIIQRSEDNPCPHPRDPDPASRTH
Briefly: Fluorogenic substrate assay of elastase-like activity in CF Sol. It is filed as biochemical. The conditions noted are these: 50 μM; CF Sol sample 26w at 2.5% (v/v); PBS pH 7.4, 37°C; 60 min. The protocol:
FIGURE 7 Activity Based Profiling of serine proteases by peptide N-Alkyl glycine carbamates. (A,B) record the results for the incubation of NE with NAP800 and chymotrypsin with NAP849. NE and Chymotrypsin were treated (±) with NAP800 and NAP849, respectively (± pre-heat inactivation at 95°C, for 10 min), for 30 min, at 37°C. (C) Determination of NE levels in CF samples using fluorogenic substrate assay. NE assays were carried out in PBS, pH 7.4, at 37°C. CF Sol (sample 26w) was used at a final concentration of 2.5% (v/v), and the level of NE contained therein was measured using Succinyl-Ala-Ala-Pro-Val-NHMec (50 μM), in the absence (-- o --) and presence (-- o --) of NAP800 (50 μM). (D) Activity based profiling of CF Sol using NAP800. CF Sol samples 26w and 41w were treated (+) with 50 μM NAP800 (+ pre-heat inactivation at 95°C, for 10 min), for 30 min, at 37°C.
Initially, as a quick screen, a fluorogenic enzyme assay was performed on CF Sol samples, using the elastase fluorogenic substrate MeO-Succinyl-Ala-Ala-Pro-Val-NHMec, the results of one such experiment (performed on sample 26w) is recorded in Figure 7C.

Test [5] concerns the target T5, thrombin (Homo sapiens, UniProt P00734).
T5 construct: apparent molecular mass of 31 kDa, corresponding to the heavy (catalytic) chain of the protease; purchased R&D Systems
The experiment in a line: Activity-based profiling of thrombin (SDS-PAGE, streptavidin-HRP western blot). To be noted: pre-treatment 30 min, 37°C. It is filed as binding. The protocol: as §4
FIGURE 8 Activity Based Profiling of Trypsin-like serine proteases. (A) trypsin was treated (±) with NAP830, for 30 min, at 37°C (± pretreatment with Z-Arg^P-(OPh)2). (B) thrombin (1 […]) was pre-treated with various concentrations of NAP559 (30 min, at 37°C) followed by treatment (±) with NAP858 for 30 min, at 37°C. (C) Plasmin was treated in turn with QUBTL1, NAP962 and NAP830, (± pre-heat inactivation at 95°C, for 10 min) for 30 min, at 37°C. […]
as §2

T1 sequence (P00761 9-231): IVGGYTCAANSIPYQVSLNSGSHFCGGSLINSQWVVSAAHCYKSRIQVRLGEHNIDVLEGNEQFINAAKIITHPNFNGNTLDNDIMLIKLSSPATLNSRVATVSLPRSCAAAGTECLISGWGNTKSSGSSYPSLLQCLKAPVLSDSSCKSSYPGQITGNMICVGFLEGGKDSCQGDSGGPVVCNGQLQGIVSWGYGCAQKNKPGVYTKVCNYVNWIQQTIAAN

As to `NCCCCN(CC(=O)NCC(=O)NCC(=O)NCCCOCCOCCOCCCNC(=O)CCCCC1SCC2NC(=O)NC21)C(=O)ON1C(=O)CCC1=O` (stereo not drawn) [NAP830, Succinimidoyl-CO-NLys-Gly-Gly-PEG-Biotin], in test [1], the “labelling of trypsin by ABP (western blot)” value is “enabled the active site labeling and detection of the protease”.
As for `O=C(CCCCC1SCC2NC(=O)NC21)NCCCOCCOCCOCCCNC(=O)CNC(=O)CNC(=O)CN(Cc1ccccc1)C(=O)ON1C(=O)CCC1=O` (stereo not drawn) [NAP849, Succinimidoyl-CO-NPhe-Gly-Gly-PEG-Biotin], the “labelling of chymotrypsin by ABP (western blot)” value in test [2] is given as “detection of a strong band corresponding to the molecular weight of chymotrypsin”.
Regarding `CC(C)N(CC(=O)NCC(=O)NCC(=O)NCCCOCCOCCOCCCNC(=O)CCCCC1SCC2NC(=O)NC21)C(=O)ON1C(=O)CCC1=O` (stereo not drawn) [NAP800, Succinimidoyl-CO-NVal-Gly-Gly-PEG-Biotin], the “labelling of elastase-like proteases in CF Sol (western blot)” value in test [3] is “detection of a diffuse band in two CF Sol samples (26w and 41w)”. Also, in test [4], the “blockade of MeO-Succinyl-Ala-Ala-Pro-Val-NHMec cleavage in CF Sol” value was “progressive and ultimately complete blockade of substrate cleavage”.
For `N=C(N)NCCCN(CC(=O)N1CCC[C@H]1C(=O)N(CC(N)=O)Cc1ccccc1)C(=O)ON1C(=O)CCC1=O` [NAP559, Succinimidoyl-CO-NArg-D-Pro-NPhe-NH2], the “effect of pre-treatment of thrombin on 31 kDa band disclosed by NAP858” value in test [5] (1 μM) is given as “slight but a discernible diminution in the intensity of the band”; in test [5] (10 and 50 μM) it was “almost completely extinguished”.
